Results taken from patent US20230030847A1, “ANTI-MICROBIAL SULFONAMIDE PHARMACEUTICAL COMPOSITIONS FOR EXTERNAL USE” (priority 2021, published 2023).

Tests used:
Pseudomonas aeruginosa = assay: impregnated test swatch kill test; assay type: cell-based; settings: swatches impregnated with 2.5% BENZ; within 10 minutes
Experimental: (§1) Test swatches which had been impregnated with 2.5% BENZ were exposed to Staphylococcus aureus, Pseudomonas aeruginosa, and Aspergillus brasiliensis. A stack of two swatches was placed in a petri dish and then inoculated with 1.000 mL of an inoculum for one of the microorganisms. Following inoculation, the petri dishes were sealed and placed in a plastic bag/container, then incubated at optimal conditions for the given microorganism. Swatches were harvested at 0, 10 minutes, 30 minutes, 1 hour, and 6 hours after inoculation. At harvesting, the swatch was transferred to a neutralization media, then vortex mixed for 1-2 minutes. The neutralization suspension was […] and plated for 18-24 hours for bacteria and 24-72 hours for fungi at optimal incubation conditions.

Staphylococcus aureus = assay: impregnated test swatch kill test; assay type: cell-based; settings: swatches impregnated with 2.5% BENZ; within 30 minutes
Experimental: as §1

Aspergillus brasiliensis = assay: impregnated test swatch kill test; assay type: cell-based; settings: swatches impregnated with 2.5% BENZ; within 1 hour
Experimental: as §1

Candida auris = assay: impregnated test swatch kill test; assay type: cell-based; settings: stack of four swatches impregnated with 2.5% BENZ; within 1 hour
[1] = test system: Influenza A virus, A/PR/8/34 strain, ATCC VR-1469; assay type: cell-based; settings: filter medium impregnated with 2.5% BENZ; similar experiment (contact time 30 minutes)
bovine corneas = assay: bovine corneal opacity and permeability (BCOP) test for ocular irritation; settings: 0.75 mL of 20% BENZ solution, 10 minutes exposure, three bovine corneas
Experimental: A bovine corneal opacity and permeability (BCOP) test was performed to determine the potential for ocular irritation.
Each dissected cornea was mounted in a holder that separated into anterior and posterior chambers. The two chambers were filled with a MEM solution, and an opacitometer was used to measure the opacity of the cornea. Next, the MEM solution was removed from the anterior chamber, and the epithelium of three bovine corneas were exposed to 0.75 mL of a 20% BENZ solution for 10 minutes in a manner that covered the entire cornea. The two chambers were then rinsed and refilled with fresh MEM solution. The corneas were then incubated at 32° C. for two hours, and the two chambers were again rinsed and refilled with fresh MEM solution. The opacity was measured again. The MEM solution was then removed from the anterior chamber and the anterior chamber was filled with 1.0 mL of 0.4% sodium fluorescein in Dulbecco's phosphate-buffered saline. After 90 minutes, the fluid in the posterior chamber was removed and the amount of dye that passed through the cornea was measured as the optical density at 490 nm by spectrophotometer. The In Vitro Irritancy Score (IVIS) was calculated to be −0.67, which is a perfect score.

[2] = stability study of BENZ solution; assay type: physicochemical
Experimental: A stability study was conducted. A BENZ solution was stored for 14 days at 54° C. At Day 0, the samples contained an average of 20.26% BENZ. At Day 14, the samples contained an average of 19.97% BENZ.

skin of guinea pigs = settings: guinea pig, in vivo
Experimental: Next, 10 guinea pigs were used to test for delayed dermal contact sensitization according to ISO 10993-10, Part 10. A wet gauze patch (25 mm×25 mm) treated with 20% BENZ was applied to the intact skin of each guinea pick for six hours (±30 minutes), three times a week, over a three-week period for a total of nine applications. After a two-week recovery period, the gauze patch was applied again. The skin was then observed for evidence of dermal reaction at 24 and 48 hours after patch removal. […] This test was performed a total of three times with different guinea pigs, and the same results were obtained each time.

rats = assay: single-dose oral gavage toxicity in rats; assay type: in vivo; settings: single gavage dose of liquid containing 20% BENZ, 5 g/kg body weight
Description: Five rats (Rattus norvegicus) weighing 244 to 272 grams were gavaged with a single dose of liquid containing 20% N-chloro-4-carboxybenzenesulfonamide (BENZ) at a dosage of 5 g/kg body weight.

[3] = test system: Rhinovirus 37, 151-1 strain, ATCC VR-1607; assay: impregnated filter medium virucidal test (TCID50 in MRC-5 cells); assay type: cell-based; settings: filter medium impregnated with 2.5% BENZ; contact time 30 minutes, 24.7-24.9° C., 39.9-40.5% relative humidity
Experimental: Next, a filter medium impregnated with 2.5% BENZ was exposed to a 0.200 mL volume of Rhinovirus 37, 151-1 strain, ATCC VR-1607 for a contact time of 30 minutes at 24.7-24.9° C. and 39.9-40.5% relative humidity. After 30 minutes, the filter medium was transferred to a neutralization medium and vortexed for at least 15 seconds. A 0.1 mL aliquot was removed and a series of 10-fold dilutions was performed in 0.9 mL aliquots of test medium. Each dilution was inoculated into MRC-5 cells. Viral titer was then calculated.

skin of rabbits = assay: primary skin irritation according to ISO 10993-10, Part 10; assay type: in vivo, rabbit; settings: abraded skin, gauze patches treated with 20% BENZ for 24 hours, observed 1, 24, 48 and 72 hours after patch removal
Experimental: Next, three rabbits were used for evaluation of primary skin irritation according to ISO 10993-10, Part 10. Two wet gauze patches (25 mm×25 mm) treated with 20% BENZ were applied to the skin of each rabbit in different locations. Each application site was abraded with four parallel epidermal abrasions prior to application of the treated gauze patch. The treated gauze was secured in place for 24 hours, then removed. The skin was then observed for erythema and edema at 1, 24, 48, and 72 hours after patch removal.

O=C(O)c1ccc(S(=O)(=O)NCl)cc1 [BENZ, N-chloro-4-carboxybenzenesulfonamide]
kill (Pseudomonas aeruginosa): 99.999%
kill (Staphylococcus aureus): 99.999%
kill (Aspergillus brasiliensis): 99.9%
kill (Candida auris): 99.998%
reduction in viral titer [1]: > 100%
In Vitro Irritancy Score (IVIS) (bovine corneas): −0.67
average BENZ content of samples ([2]; Day 0, BENZ solution): 20.26%
average BENZ content of samples ([2]; Day 14, stored at 54° C.): 19.97%
delayed dermal contact sensitization (skin of guinea pigs): No evidence was found of delayed dermal contact sensitization
survival after seven days (rats): all five rats were still alive
reduction in viral titer [3]: > 99.997%
erythema and edema (skin of rabbits): no erythema or edema observed
